Test results taken from patent US11078182B2, “Heteroaromatic compounds as Vanin inhibitors” (Boehringer Ingelheim International GmbH, priority 2018, dated 2021).

Tests used:
[1] = system: Pantetheinase (vanin); assay: Human Whole Blood assay; type: cell-based; conditions: pantethine substrate, pantothenic acid formation by RapidFire MS, read-out: HWB IC50
Procedure: Pantetheinase (vanin) converts panteheine into pantothenic acid and cysteamine. Accordingly, in the described protocol vanin activity is quantified by formation of pantothenic acid after pantetheine supplementation via pantethine. The assay is applicable to identify vanin inhibitors. Compound stocks are dissolved in DMSO at 10 mM. Further dilutions are performed in RPMI 1640 medium (Gibco, #A-10491-01) and final concentrations in the assay are 0.032 nM-500 nM.
Human blood is drawn into a blood bag (1% heparin, 50 I.E./mL). Blood is aliquoted into cavities of 96-deep-well plates at 290 μL and mixed with 10 μL compound solution or vehicle (30 sec at 1400 rpm on a shaker). Equilibration follows at room temperature, 250 rpm and for 30 min. The assay is starts by adding 10 μL of substrate solution (20 μM pantethine in 1 mM DTT, 0.0025% Brij-35, 50 mM HEPES, pH7.5) to each well, except for some blank wells which receive […] substrate buffer (1 mM DTT, 0.0025% Brij-35, 50 mM HEPES, pH7.5) only. Samples are thoroughly shaken (30 sec, 1400 rpm) and reaction is allowed to take place at room temperature, 250 rpm and for 5 min. The reaction is stopped by addition of a vanin tool inhibitor in excess (BI-1 total conc. 10 μM). Centrifugation of the plate follows at 4° C., 665 G for 10 min. Then the blood plasma samples (100 μL) are transferred into another 96-deep-well plate and proteins are precipitated (5 min on ice) by adding 100 μL of ice cold precipitation solution (1 μM labelled pantothenic acid (di-β-alanine-13C6,15N2 calcium salt, Sigma, #705837) in acetonitrile). Afterwards the plate is centrifuged (4° C., 3220 G, 10 min) and supernatants (50 μL) are collected into another 96-deep-well plate and mixed (10 sec, 1400 rpm) with 150 μL ice cold formic acid (0.1%, Carl Roth GmbH+Co.KG, #CP03.1). The formation of pantothenic acid is detected by RapidFire Mass Spectrometry. A TripleQuad 6500+ (ABSciex, Germany) is equipped with an LC-1290 system, a RapidFire autosampler (Agilent, Germany) and a C18 cartridge Type C 12 μL (Agilent Cat #G9526-80000). Mobile phase A is consisting of 0.09% formic acid and 0.01% trifluoroacetic acid in water and mobile phase B of 0.09% formic acid and 0.01% trifluoroacetic acid in acetonitrile/methanol/water=47.5/47.5/5.

[2] = molecular target: FLAG-tagged Vanin-1 (AA 22-493, T26I) (Homo sapiens (Human), UniProt O95497, T26I); assay: Vanin-1 enzymatic assay; type: biochemical; conditions: 0.1 nM Vanin-1, 3 μM D-pantethine, pantothenic acid formation by RapidFire MS; geometric mean if multiple measurements; read-out: VNN 1 IC50
Sequence of FLAG-tagged Vanin-1 (AA 22-493, T26I) (O95497 22-493 T26I): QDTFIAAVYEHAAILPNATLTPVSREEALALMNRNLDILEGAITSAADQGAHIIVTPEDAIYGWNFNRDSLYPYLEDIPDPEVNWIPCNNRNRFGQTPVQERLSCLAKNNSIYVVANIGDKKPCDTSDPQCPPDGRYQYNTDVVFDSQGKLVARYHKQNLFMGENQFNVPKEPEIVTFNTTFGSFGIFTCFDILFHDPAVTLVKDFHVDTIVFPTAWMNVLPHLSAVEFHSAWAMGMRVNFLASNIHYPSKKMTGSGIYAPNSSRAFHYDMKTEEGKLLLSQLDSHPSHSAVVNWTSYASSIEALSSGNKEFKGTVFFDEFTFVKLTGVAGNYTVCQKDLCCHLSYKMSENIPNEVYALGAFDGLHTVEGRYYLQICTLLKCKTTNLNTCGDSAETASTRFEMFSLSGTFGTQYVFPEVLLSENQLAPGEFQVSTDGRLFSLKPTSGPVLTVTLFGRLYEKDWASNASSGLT
Procedure: The test compounds are dissolved in 100% DMSO at a concentration of 10 mM and in a first step diluted in DMSO to a concentration of 5 mM, followed by serial dilution steps in 100% DMSO. Dilution factor and number of dilution steps may vary according to needs. Typically 8 different concentrations by 1:5 dilutions are prepared, a further intermediate dilutions of the substances is carried out with assay buffer resulting in 1% final DMSO concentration in the assay.
0.1 nM of FLAG-tagged Vanin-1 (AA 22-493, T26I, produced internally) and test compounds are incubated at room temperature for 20 minutes in assay buffer (1 mM DTT, 0.0025% Brij-35, 50 mM HEPES, pH7.5). D-Pantethine (Sigma, Cat #P2125-5G) in assay buffer is added (final concentration 3 μM) and incubated for additional 30 minutes at room temperature. Total assay volume typically is 40 μl but might be adjusted according to needs. Reaction is stopped by adding equal volume of stop solution as the reaction mixture to reach 100 nM HD-pantothenic acid (as an internal standard) and 1% TFA. Assay plates are centrifuged for 2 minutes and the formation of pantothenic acid is detected by RapidFire Mass Spectrometry (mobile phase A: 0.1% formic acid and 0.01% trifluoroacetic acid in water; mobile phase B: 47.5% acetonitrile, 47.5% methanol, 0.1% formic acid and 0.01% trifluoroacetic acid in water) using a C18, 12 μL cartridge (Agilent Cat #G9205A).
The values given in Table I result from measurements of one or more samples. In case of multiple measurements the geometric mean values are given.

SMILES: CC(=O)N(C)[C@H]1CCN(C(=O)c2ccc(NC(C)(C)Cc3ccc(F)cc3)nc2)C1 [Example 3.3]
- IC50 [1]: 8.7 nM
- IC50 [2]: 0.4 nM

SMILES: CCC(C)(C)Nc1ccc(C(=O)N2CC[C@H](N(C)C(C)=O)C2)cn1 [Example 3.2]
- IC50 [1]: 3.1 nM
- IC50 [2]: 0.2 nM

SMILES: CN(C(=O)N1CCOCC1)[C@H]1CCN(C(=O)c2ccc(NC(C)(C)C)nc2)C1 [Example 4.1, N-[(3S)-1-[6-(tert-Butylamino)pyridine-3-carbonyl]pyrrolidin-3-yl]-N-methylmorpholine-4-carboxamide]
- IC50 [1]: 3.2 nM
- IC50 [2]: 0.3 nM

SMILES: CC(=O)N(C)[C@H]1CCN(C(=O)c2ccc(NC(C)(C)CCO)nc2)C1 [Example 3.1, N-[(3S)-1-{6-[(4-Hydroxy-2-methylbutan-2-yl)amino]pyridine-3-carbonyl}pyrrolidin-3-yl]-N-methylacetamide]
- IC50 [1]: 1.6 nM
- IC50 [2]: 0.2 nM

SMILES: CN(C(=O)[C@H]1CCCO1)[C@H]1CCN(C(=O)c2ccc(NC(C)(C)C)nc2)C1 [Example 1.15]
- IC50 [2]: 1 nM

SMILES: Cc1cc(C(=O)N(C)[C@H]2CCN(C(=O)c3ccc(NC(C)(C)C)nc3)C2)[nH]n1 [Example 1.12]
- IC50 [1]: 9.7 nM
- IC50 [2]: 0.4 nM

SMILES: CC1CN([C@H]2CCN(C(=O)c3ccc(NC(C)(C)C)nc3)C2)C(=O)O1 (stereo partly drawn) [Example 6, 3-[(3S)-1-[6-(tert-Butylamino)pyridine-3-carbonyl]pyrrolidin-3-yl]-5-methyl-1,3-oxazolidin-2-one]
- IC50 [2]: 1.6 nM

SMILES: CN(C(=O)[C@@H]1CCCO1)[C@H]1CCN(C(=O)c2ccc(NC(C)(C)C)nc2)C1 [Example 1.3]
- IC50 [1]: 2.7 nM
- IC50 [2]: 0.3 nM

SMILES: CN(C(=O)C1CC1)[C@H]1CCN(C(=O)c2ccc(NC34CC(C3)C4)nc2)C1 [Example 2.6]
- IC50 [1]: 9.2 nM
- IC50 [2]: 0.4 nM

SMILES: CN(C(=O)CN1CCOCC1)[C@H]1CCN(C(=O)c2ccc(NC(C)(C)C)nc2)C1 [Example 1.16]
- IC50 [2]: 1.3 nM

SMILES: CC1(C#N)CCN(C(=O)c2ccc(NC(C)(C)C)nc2)C1 (single isomer, unassigned) [Example 7, 1-[6-(tert-Butylamino)pyridine-3-carbonyl]-3-methylpyrrolidine-3-carbonitrile]
- IC50 [1]: 3.9 nM
- IC50 [2]: 0.3 nM

SMILES: CC(=O)N(C)[C@H]1CCN(C(=O)c2ccc(NC(C)(C)CCn3cncn3)nc2)C1 [Example 3.4]
- IC50 [2]: 2.1 nM

SMILES: CN1CCN(C(=O)N(C)[C@H]2CCN(C(=O)c3ccc(NC(C)(C)C)nc3)C2)CC1 [Example 4.2]
- IC50 [2]: 1.2 nM

SMILES: CC(=O)N(C)[C@@H]1CCN(C(=O)c2ccc(NC(C)(C)C)nc2)C1 [Example 5.2]
- IC50 [1]: 267 nM

SMILES: CC(C)(C)Nc1ccc(C(=O)N2CC(C)(c3ccccn3)C2)cn1 [Example 8, N-tert-Butyl-5-[3-methyl-3-(pyridin-2-yl)azetidine-1-carbonyl]pyridin-2-amine]
- IC50 [1]: 2.7 nM
- IC50 [2]: 0.3 nM

SMILES: CC(=O)N(C)[C@H]1CCN(C(=O)c2ccc(NC(C)(C)C(C)C)nc2)C1 [Example 2.2]
- IC50 [1]: 7.7 nM
- IC50 [2]: 0.4 nM

SMILES: CC(C)(C)Nc1ccc(C(=O)N2CC[C@H](N3CCCC3=O)C2)cn1 [Example 1.9]
- IC50 [1]: 3.1 nM
- IC50 [2]: 0.4 nM

SMILES: CN(C(=O)C1CC1)[C@H]1CCN(C(=O)c2ccc(NC3(C)CCCC3)nc2)C1 [Example 2.3]
- IC50 [2]: 0.7 nM

SMILES: CN(C(=O)C1CCOC1)[C@H]1CCN(C(=O)c2ccc(NC(C)(C)C)nc2)C1 (some centres unmarked) [Example 1.10]
- IC50 [2]: 0.4 nM

SMILES: CN(C(=O)c1ccc(F)cc1)[C@H]1CCN(C(=O)c2ccc(NC(C)(C)C)nc2)C1 [Example 1.11]
- IC50 [1]: 7.5 nM
- IC50 [2]: 0.4 nM

SMILES: CN(C(=O)C1CC1)[C@H]1CCN(C(=O)c2ccc(NC3(C)CCC3)nc2)C1 [Example 2.1, N-Methyl-N-[(3S)-1-{6-[(1-methylcyclobutyl)amino]pyridine-3-carbonyl}pyrrolidin-3-yl]cyclopropanecarboxamide]
- IC50 [1]: 4.6 nM
- IC50 [2]: 0.3 nM

SMILES: CC(C)(C)Nc1ccc(C(=O)N2CC[C@H](N3CCCCC3=O)C2)cn1 [Example 1.14]
- IC50 [1]: 12.5 nM
- IC50 [2]: 0.8 nM

SMILES: CC(=O)N(C)[C@H]1CCN(C(=O)c2ccc(NC(C)(C)C)nc2)C1 [Example 5.1, N-[(3S)-1-[6-(tert-Butylamino)pyridine-3-carbonyl]pyrrolidin-3-yl]-N-methylacetamide]
- IC50 [1]: 3.2 nM
- IC50 [2]: 0.5 nM

SMILES: CN(C(=O)C1CC1)[C@H]1CCN(C(=O)c2ccc(NC(C)(C)C)nc2)C1 [Example 1.5]
- IC50 [1]: 4.2 nM
- IC50 [2]: 0.3 nM

SMILES: CN(c1ncccn1)[C@H]1CCN(C(=O)c2ccc(NC(C)(C)C)nc2)C1 [Example 1.13]
- IC50 [1]: 12.6 nM
- IC50 [2]: 0.4 nM

SMILES: CN(C(=O)C1CCC1)[C@H]1CCN(C(=O)c2ccc(NC(C)(C)C)nc2)C1 [Example 1.1, N-[(3S)-1-[6-(tert-Butylamino)pyridine-3-carbonyl]pyrrolidin-3-yl]-N-methylcyclobutanecarboxamide]
- IC50 [1]: 4.3 nM
- IC50 [2]: 0.2 nM

SMILES: CN(C(=O)c1cc(C(F)(F)F)nn1C)[C@H]1CCN(C(=O)c2ccc(NC(C)(C)C)nc2)C1 [Example 1.7]
- IC50 [1]: 5 nM
- IC50 [2]: 0.3 nM

SMILES: CC(C)(C)Nc1ccc(C(=O)N2CC[C@H](N3CCOC3=O)C2)cn1 [Example 1.6]
- IC50 [1]: 4 nM
- IC50 [2]: 0.3 nM

SMILES: CN(C(=O)C1CC1)[C@H]1CCN(C(=O)c2ccc(NC3(C)CCOCC3)nc2)C1 [Example 2.5]
- IC50 [2]: 7.3 nM

SMILES: CN(C(=O)C1CC(F)(F)C1)[C@H]1CCN(C(=O)c2ccc(NC(C)(C)C)nc2)C1 [Example 1.2]
- IC50 [1]: 3.6 nM
- IC50 [2]: 0.2 nM

SMILES: CN(C(=O)C1(C#N)CC1)[C@H]1CCN(C(=O)c2ccc(NC(C)(C)C)nc2)C1 [Example 1.8]
- IC50 [1]: 5.8 nM
- IC50 [2]: 0.3 nM

SMILES: CC1(Nc2ccc(C(=O)N3CC[C@H](N4CCCC4=O)C3)cn2)CCCCC1 [Example 2.4]
- IC50 [2]: 1.7 nM

SMILES: CN(C(=O)c1ccc(Cl)s1)[C@H]1CCN(C(=O)c2ccc(NC(C)(C)C)nc2)C1 [Example 1.4]
- IC50 [1]: 25.2 nM
- IC50 [2]: 0.3 nM
